Molecular target: Recombinant Human Poly(ADP-Ribose) Polymerase (PARP), PARP-1 (Homo sapiens (Human), UniProt P09874)
Conditions: read-out: PARP-1 (Ki); Table 1; text calls the values EC50s

Chain of Recombinant Human Poly(ADP-Ribose) Polymerase (PARP), PARP-1 (P09874 whole entry): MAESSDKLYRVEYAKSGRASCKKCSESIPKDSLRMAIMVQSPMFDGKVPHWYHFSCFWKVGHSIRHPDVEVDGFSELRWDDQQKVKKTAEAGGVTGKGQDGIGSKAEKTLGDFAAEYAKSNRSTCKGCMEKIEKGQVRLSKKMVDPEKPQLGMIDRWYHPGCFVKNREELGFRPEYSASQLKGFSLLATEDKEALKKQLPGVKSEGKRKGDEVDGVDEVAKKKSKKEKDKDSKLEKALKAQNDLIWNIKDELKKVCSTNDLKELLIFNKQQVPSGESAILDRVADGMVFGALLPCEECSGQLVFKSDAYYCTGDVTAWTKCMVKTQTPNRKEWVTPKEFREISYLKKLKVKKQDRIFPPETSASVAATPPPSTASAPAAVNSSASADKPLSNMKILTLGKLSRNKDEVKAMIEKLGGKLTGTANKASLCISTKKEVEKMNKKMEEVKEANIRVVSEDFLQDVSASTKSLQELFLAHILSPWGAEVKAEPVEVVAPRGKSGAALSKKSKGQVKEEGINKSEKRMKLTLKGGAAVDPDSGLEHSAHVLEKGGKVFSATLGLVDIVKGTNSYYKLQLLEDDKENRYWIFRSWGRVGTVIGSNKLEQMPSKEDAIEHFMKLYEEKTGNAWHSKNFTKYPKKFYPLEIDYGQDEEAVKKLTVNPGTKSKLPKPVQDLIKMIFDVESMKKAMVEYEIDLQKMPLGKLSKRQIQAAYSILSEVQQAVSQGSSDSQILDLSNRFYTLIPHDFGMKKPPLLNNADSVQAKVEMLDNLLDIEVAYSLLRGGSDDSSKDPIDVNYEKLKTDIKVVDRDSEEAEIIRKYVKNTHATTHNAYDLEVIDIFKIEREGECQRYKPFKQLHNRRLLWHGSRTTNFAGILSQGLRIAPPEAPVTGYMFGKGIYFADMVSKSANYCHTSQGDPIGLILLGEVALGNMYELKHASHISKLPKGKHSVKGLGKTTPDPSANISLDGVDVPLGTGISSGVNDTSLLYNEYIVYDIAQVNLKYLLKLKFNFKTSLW

Compound	Ki [nM]
CN1CCN(C(=O)c2cc(Cc3n[nH]c(=O)c4c3CCCC4)ccc2F)CC1=O [Example 759, 4-{4-fluoro-3-[(4-methyl-3-oxopiperazin-1-yl)carbonyl]benzyl}-5,6,7,8-tetrahydrophthalazin-1(2H)-one]	0.3
O=C(COc1ccc(OCc2ccccc2)cc1)Nc1cc(Cc2n[nH]c(=O)c3c2NCCC3)ccc1F [Example 481, 2-(4-(benzyloxy)phenoxy)-N-(2-fluoro-5-((5-oxo-1,2,3,4,5,6-hexahydropyrido(2,3-d)pyridazin-8-yl)methyl)phenyl)acetamide]	12
CN1CCN(C2CCN(C(=O)c3cc(Cc4n[nH]c(=O)c5c4NCCC5)ccc3F)CC2)CC1 [Example 644]	3
Cn1cnc(S(=O)(=O)Nc2cccc(Cc3n[nH]c(=O)c4c3CCCC4)c2)c1 [Example 119, 1-methyl-N-(3-((4-oxo-3,4,5,6,7,8-hexahydrophthalazin-1-yl)methyl)phenyl)-1H-imidazole-4-sulfonamide]	703
O=C(c1cc(Cc2n[nH]c(=O)c3c2NCCC3)ccc1F)N1CCN(c2cccc(C(F)(F)F)c2)CC1 [Example 602, 8-[4-fluoro-3-({4-[3-(trifluoromethyl)phenyl]piperazin-1-yl}carbonyl)benzyl]-2,3,4,6-tetrahydropyrido[2,3-d]pyridazin-5(1H)-one]	3
O=C(c1ccc(O)nc1)N1CCN(C(=O)c2cc(Cc3n[nH]c(=O)c4c3NCCC4)ccc2F)CC1 [Example 649]	0.6
CN(C(=O)c1cc(Cc2n[nH]c(=O)c3c2NCCC3)ccc1F)C1CCN(C(=O)OC(C)(C)C)CC1 [Example 698, tert-butyl 4-[{2-fluoro-5-[(5-oxo-1,2,3,4,5,6-hexahydropyrido[2,3-d]pyridazin-8-yl)methyl]benzoyl}(methyl)amino]piperidine-1-carboxylate]	11
CC(C)NC(=O)c1cc(Cc2n[nH]c(=O)c3c2CCCC3)ccn1 [Example 76, N-isopropyl-4-((4-oxo-3,4,5,6,7,8-hexahydrophthalazin-1-yl)methyl)pyridine-2-carboxamide]	473
O=C(c1cc(Cc2n[nH]c(=O)c3c2CCCC3)ccc1F)N1CCN(C(=O)c2cccnc2Cl)CC1 [Example 755, 4-[3-({4-[(2-chloropyridin-3-yl)carbonyl]piperazin-1-yl}carbonyl)-4-fluorobenzyl]-5,6,7,8-tetrahydrophthalazin-1(2H)-one]	1.5
O=C(c1cc(Cc2n[nH]c(=O)c3c2NCCC3)ccc1F)N1CCN(C(=O)C2CCCC2)CC1 [Example 640]	0.7
O=C1CCCN1c1cccc(Cc2n[nH]c(=O)c3c2CCCC3)n1 [Example 125, 4-((6-(2-oxopyrrolidin-1-yl)pyridin-2-yl)methyl)-5,6,7,8-tetrahydrophthalazin-1(2H)-one]	47
O=C(c1cscn1)N1CCCN(C(=O)c2cc(Cc3n[nH]c(=O)c4c3NCCC4)ccc2F)CC1 [Example 703, 8-(4-fluoro-3-{[4-(1,3-thiazol-4-ylcarbonyl)-1,4-diazepan-1-yl]carbonyl}benzyl)-2,3,4,6-tetrahydropyrido[2,3-d]pyridazin-5(1H)-one]	2.3
CN(C)CCN(C)C(=O)c1cc(Cc2n[nH]c(=O)c3c2NCCC3)ccc1F [Example 513, N-[2-(dimethylamino)ethyl]-2-fluoro-N-methyl-5-[(5-oxo-1,2,3,4,5,6-hexahydropyrido[2,3-d]pyridazin-8-yl)methyl]benzamide]	6
CC(c1ccc(F)c(N2CCCC2=O)c1)c1n[nH]c(=O)c2c1CCCC2 (stereo not drawn) [Example 413, 4-(1-(4-fluoro-3-(2-oxopyrrolidin-1-yl)phenyl)ethyl)-5,6,7,8-tetrahydrophthalazin-1(2H)-one]	18

Results, then the molecule that gave them:

Ki [nM]	Compound
23	O=C(NCCCN1CCCC1)c1cccc(Cc2n[nH]c(=O)c3c2CCCC3)c1 [Example 315, 3-((4-oxo-3,4,5,6,7,8-hexahydrophthalazin-1-yl)methyl)-N-(3-pyrrolidin-1-ylpropyl)benzamide]
683	CC(=O)Nc1cccc(-c2cc(C(C)Cc3n[nH]c(=O)c4c3CCCC4)ccc2F)c1 (stereo not drawn) [Example 296, N-(2′-fluoro-5′-(1-methyl-2-(4-oxo-3,4,5,6,7,8-hexahydrophthalazin-1-yl)ethyl)-1,1′-biphenyl-3-yl)acetamide]
56	COc1ccc(CCNC(=O)c2cccc(Cc3n[nH]c(=O)c4c3CCCC4)c2)c(OC)c1 [Example 403, N-(2-(2,4-dimethoxyphenyl)ethyl)-3-((4-oxo-3,4,5,6,7,8-hexahydrophthalazin-1-yl)methyl)benzamide]
82	Cc1ccc(CCNC(=O)c2cccc(Cc3n[nH]c(=O)c4c3CCCC4)c2)c(C)c1 [Example 398, N-(2-(2,4-dimethylphenyl)ethyl)-3-((4-oxo-3,4,5,6,7,8-hexahydrophthalazin-1-yl)methyl)benzamide]
50	CNC(=O)c1cc(Cc2n[nH]c(=O)c3c2CCCC3)ccn1 [Example 67, N-methyl-4-((4-oxo-3,4,5,6,7,8-hexahydrophthalazin-1-yl)methyl)pyridine-2-carboxamide]
14	O=C(CCCOc1ccccc1)Nc1cccc(Cc2n[nH]c(=O)c3c2CCCC3)c1 [Example 165, N-(3-((4-oxo-3,4,5,6,7,8-hexahydrophthalazin-1-yl)methyl)phenyl)-4-phenoxybutanamide]
56	O=C(Nc1ccc2cn[nH]c2c1)c1cccc(Cc2n[nH]c(=O)c3c2CCCC3)c1 [Example 368, N-1H-indazol-6-yl-3-((4-oxo-3,4,5,6,7,8-hexahydrophthalazin-1-yl)methyl)benzamide]
22	Cc1ccccc1OCC(=O)Nc1cccc(Cc2n[nH]c(=O)c3c2CCCC3)c1 [Example 149, 2-(2-methylphenoxy)-N-(3-((4-oxo-3,4,5,6,7,8-hexahydrophthalazin-1-yl)methyl)phenyl)acetamide]
292	O=C(Nc1cccc(Cc2n[nH]c(=O)c3c2CCCC3)c1)c1ccc(F)cc1F [Example 182, 2,4-difluoro-N-(3-((4-oxo-3,4,5,6,7,8-hexahydrophthalazin-1-yl)methyl)phenyl)benzamide]
4	O=C(c1cccc(Cc2n[nH]c(=O)c3c2CCCC3)c1)N1CCN(c2ccccc2F)CC1 [Example 444, 4-(3-((4-(2-fluorophenyl)piperazin-1-yl)carbonyl)benzyl)-5,6,7,8-tetrahydrophthalazin-1(2H)-one]
18	CN1CCC(CNC(=O)c2cccc(Cc3n[nH]c(=O)c4c3CCCC4)c2)CC1 [Example 79, N-((1-methylpiperidin-4-yl)methyl)-3-((4-oxo-3,4,5,6,7,8-hexahydrophthalazin-1-yl)methyl)benzamide]
56	Cc1cc(Cl)ccc1OCC(=O)Nc1cccc(Cc2n[nH]c(=O)c3c2CCCC3)c1 [Example 171, 2-(4-chloro-2-methylphenoxy)-N-(3-((4-oxo-3,4,5,6,7,8-hexahydrophthalazin-1-yl)methyl)phenyl)acetamide]
144	O=C(COc1ccccc1)Nc1cccc(CCc2n[nH]c(=O)c3c2CCCC3)c1 [Example 263, N-(3-(2-(4-oxo-3,4,5,6,7,8-hexahydrophthalazin-1-yl)ethyl)phenyl)-2-phenoxyacetamide]
